Drawing on patent US8697081B2, “Method of modulating neovascularization” (The Regents of the University of Michigan, priority 2008, dated 2014), this text covers endothelial cell tubulogenesis and cytoskeletal architecture reorganization for 1 molecule.

In test [1] the test system is human endothelial cells. As to the kind of experiment: Tubulogenesis (patent tubules) in 3-D fibrin gel. It is filed as cell-based. To be noted: 50 μM blebbistatin. Here is the method:
Endothelial cells were isolated from human umbilical cord veins by collagenase digestion and cultured in Medium 199 (Gibco) containing 20% human serum, 50 μg/ml endothelial cell growth supplement (BD Biosciences), 100 U/ml penicillin, and 100 μg/ml streptomycin (Hiraoka et al. 1998. Cell, 95(3): 365-377). […]
(Chernousov et al. 1991. J. Biol. Chem., 266(17): 10851-10858; Tomasini-Johansson et al. 2001. J. Biol. Chem., 276(26): 23430-23439; Mao and Schwarzbauer. 2005. Matrix Biol., 24(6): 389-399; and Tomasini-Johansson et al. 2006. Matrix Biol., 25(5): 282-293). […] Cell number in 3-D cultures was determined by hemacytometry after dissolving gels with 2 mg/ml bacterial collagenase (Worthington) while the number of patent tubules was determined in randomly selected cross-sections. Fn matrix assembly and cell morphology were monitored by confocal laser microscopy. To examine cell migration, endothelial cells were embedded in a 100 μl fibrin gel for 2 hours, then placed within a 500 μl gel for 8 days in the presence of Del29, FUD, control IgG, or L8, after which migration from the inner gel was assessed.

The subject of test [2] is human endothelial cells. As to the kind of experiment: F-actin cytoskeletal organization, activated β1 integrin and vinculin distribution (phalloidin, confocal). Type of test: cell-based. The settings on record: 3-D fibrin gel, 2 days, 50 μM blebbistatin. The procedure: To further study the effects of Fn matrix inhibition, additional cytological processes associated with angiogenesis were examined. Endothelial cells were cultured within 3-D or 2-D fibrin gels in the presence of the FUD or Del 29 peptides for 2 days. F-actin cytoskeletal organization was monitored following staining with Alexa 488-conjugated phalloidin. Cells also were stained with an antibody against activated β1 integrin or transfected with a GFP-tagged vinculin expression vector (pRK-vinculin-EGFP) to study distribution. Following counterstaining with Alexa 594-labeled phalloidin, fluorescence was monitored by confocal laser microscopy.
In the absence of Fn fibrillogenesis, an impaired ability of embedded endothelial cells to generate myosin-dependent forces and increase cytoplasmic stiffness was predicted to affect both Fn unfolding, as well as the ability of the cells to properly register the mechanical properties of the surrounding substratum (Wu et al. 1995. Cell, 83(5): 715-724; Zhong et al. 1998. J. Cell Biol., 141(2): 539-551; Baneyx et al. 2002. Proc. Natl. Acad. Sci. USA, 99(8): 5139-5143; Discher et al. 2005. Science, 310(5751): 1139-1143; Engler, supra; and Yoneda, supra). As such, the rheologic and functional characteristics of endothelial cells were assessed in the presence of the specific myosin ATPase inhibitor, blebbistatin. […]

As for `Cc1ccc2c(c1)C(=O)C1(O)CCN(c3ccccc3)C1=N2` (centres unmarked) [blebbistatin], the endothelial cell tubulogenesis entry in the test on human endothelial cells [1] is reported as “blocked completely”. Besides, the cytoskeletal architecture reorganization entry in the test on human endothelial cells [2] is “did not reorganize”.
